Assay results as given in paper PMC8745237, “Multiple Antimicrobial Effects of Hybrid Peptides Synthesized Based on the Sequence of Ribosomal S1 Protein from Staphylococcus aureus” (International Journal of Molecular Sciences, 2022).

Assays:
[1] = system: S. aureus (209P strain); experiment: Preliminary testing of antimicrobial properties on agar, S. aureus; assay type: cell-based, Staphylococcus aureus
Description: (§1) Table S4. Results of preliminary testing the antimicrobial properties of the VVVHINGGKF (V10F), GVVVRLANFG (G10G),
VQGLVHISEI (V10I), QQVNVKILGI (Q10I) peptides against S. aureus, MRSA, B. cereus, and E. coli bacteria cells on agar.

[2] = system: MRSA (SA 180-F strain); experiment: Preliminary testing of antimicrobial properties on agar, MRSA SA 180-F; assay type: cell-based, Methicillin-resistant Staphylococcus aureus
Description: as §1
(§2) VQGLVHISEI (V10I), QQVNVKILGI (Q10I) peptides against S. aureus, MRSA, B. cereus, and E. coli bacteria cells on agar. […]

[3] = system: E. coli (K12 strain); experiment: Preliminary testing of antimicrobial properties on agar, E. coli; assay type: cell-based, Escherichia coli
Description: as §1, §2

[4] = system: MRSA (ATCC 43300 strain); experiment: Preliminary testing of antimicrobial properties on agar, MRSA ATCC 43300; assay type: cell-based, Methicillin-resistant Staphylococcus aureus
Description: as §1, §2
MRSA (ATCC 43300 Non-AMP Non-AMP Non-AMP Non-AMP Non-AMP

[5] = system: B. cereus (IP-5812 strain); experiment: Preliminary testing of antimicrobial properties on agar, B. cereus; assay type: cell-based, Bacillus cereus
Description: as §1, §2

GVVVRLANFG [G10G]
antimicrobial properties on agar ([1]; peptide 1 µM): Non-AMP | antimicrobial properties on agar ([1]; peptide 10 µM): Non-AMP | antimicrobial properties on agar ([1]; peptide 100 µM): Non-AMP | antimicrobial properties on agar ([1]; peptide 1000 µM): Non-AMP | antimicrobial properties on agar ([1]; peptide 10000 µM): AMP | antimicrobial properties on agar ([2]; peptide 1 µM): Non-AMP | antimicrobial properties on agar ([2]; peptide 10 µM): Non-AMP | antimicrobial properties on agar ([2]; peptide 100 µM): Non-AMP | antimicrobial properties on agar ([2]; peptide 1000 µM): Non-AMP | antimicrobial properties on agar ([2]; peptide 10000 µM): Non-AMP | antimicrobial properties on agar ([3]; peptide 1 µM): Non-AMP | antimicrobial properties on agar ([3]; peptide 10 µM): Non-AMP | antimicrobial properties on agar ([3]; peptide 100 µM): Non-AMP | antimicrobial properties on agar ([3]; peptide 1000 µM): Non-AMP | antimicrobial properties on agar ([3]; peptide 10000 µM): Non-AMP | antimicrobial properties on agar ([4]; peptide 1 µM): Non-AMP | antimicrobial properties on agar ([4]; peptide 10 µM): Non-AMP | antimicrobial properties on agar ([4]; peptide 100 µM): Non-AMP | antimicrobial properties on agar ([4]; peptide 1000 µM): Non-AMP | antimicrobial properties on agar ([4]; peptide 10000 µM): Non-AMP | antimicrobial properties on agar ([5]; peptide 1 µM): Non-AMP | antimicrobial properties on agar ([5]; peptide 10 µM): Non-AMP | antimicrobial properties on agar ([5]; peptide 100 µM): Non-AMP | antimicrobial properties on agar ([5]; peptide 1000 µM): Non-AMP | antimicrobial properties on agar ([5]; peptide 10000 µM): Non-AMP
